Data from the NIST ThermoML archive (doi:10.1016/j.jct.2004.09.021).
Numbers after ± are expanded uncertainties.

Assays:
[1] = refractive index (Na D-line) (dimensionless); xn = mol fraction of the nth substance listed; conditions: 101 kPa, Liquid
[2] = xn = mol fraction of the nth substance listed; conditions: 101 kPa, Liquid

CCCCCCCC [octane] + COc1ccccc1
x2 = 0
Conditions	mass density, 293.15 K [kg/m3]	mass density, 298.15 K [kg/m3]	mass density, 303.15 K [kg/m3]	refractive index, 293.15 K	refractive index, 298.15 K	refractive index, 303.15 K	viscosity, 293.15 K [mPa·s]	viscosity, 298.15 K [mPa·s]	viscosity, 303.15 K [mPa·s]
[1]	–	–	–	1.3965 ± 0.0009	1.3947 ± 0.0009	1.3926 ± 0.0009	–	–	–
[2]	702.61 ± 0.84	698.57 ± 0.85	694.56 ± 0.85	–	–	–	0.5464 ± 0.01	0.5123 ± 0.0096	0.483 ± 0.0091

COc1ccccc1 [anisole] + CCCCCCCCCC
Conditions	mass density, 293.15 K [kg/m3]	mass density, 298.15 K [kg/m3]	mass density, 303.15 K [kg/m3]	refractive index, 293.15 K	refractive index, 298.15 K	refractive index, 303.15 K	viscosity, 293.15 K [mPa·s]	viscosity, 298.15 K [mPa·s]	viscosity, 303.15 K [mPa·s]
[1], x1 = 0.1071	–	–	–	1.4198 ± 0.0011	1.4165 ± 0.0011	1.4131 ± 0.001	–	–	–
[1], x1 = 0.1979	–	–	–	1.425 ± 0.0011	1.4218 ± 0.001	1.4186 ± 0.001	–	–	–
[1], x1 = 0.31	–	–	–	1.4328 ± 0.0011	1.4297 ± 0.001	1.4269 ± 0.001	–	–	–
[1], x1 = 0.409	–	–	–	1.4405 ± 0.0011	1.4374 ± 0.001	1.4349 ± 0.0009	–	–	–
[1], x1 = 0.508	–	–	–	1.4495 ± 0.001	1.4467 ± 0.001	1.4443 ± 0.0009	–	–	–
[1], x1 = 0.6	–	–	–	1.4591 ± 0.0011	1.4563 ± 0.001	1.4541 ± 0.0009	–	–	–
[1], x1 = 0.686	–	–	–	1.4694 ± 0.001	1.4667 ± 0.001	1.4645 ± 0.0009	–	–	–
[1], x1 = 0.789	–	–	–	1.4831 ± 0.001	1.4803 ± 0.001	1.4784 ± 0.0009	–	–	–
[1], x1 = 0.887	–	–	–	1.4973 ± 0.0011	1.4947 ± 0.0009	1.4927 ± 0.0008	–	–	–
[1], x1 = 1	–	–	–	1.5161 ± 0.0009	1.5141 ± 0.0009	1.5129 ± 0.0009	–	–	–
[2], x1 = 0.0846	742.22 ± 0.78	738.35 ± 0.78	734.48 ± 0.79	–	–	–	0.8966 ± 0.015	0.8362 ± 0.015	0.7797 ± 0.014
[2], x1 = 0.173	756.19 ± 0.76	752.25 ± 0.76	748.48 ± 0.77	–	–	–	0.8837 ± 0.015	0.8195 ± 0.014	0.7679 ± 0.013
[2], x1 = 0.2574	770.86 ± 0.74	766.87 ± 0.74	763.13 ± 0.75	–	–	–	0.865 ± 0.015	0.8019 ± 0.014	0.7542 ± 0.013
[2], x1 = 0.3675	792.19 ± 0.71	788.11 ± 0.71	784.45 ± 0.72	–	–	–	0.8512 ± 0.015	0.7887 ± 0.014	0.7392 ± 0.013
[2], x1 = 0.4546	811.1 ± 0.68	806.89 ± 0.69	803.36 ± 0.69	–	–	–	0.8492 ± 0.015	0.7883 ± 0.014	0.7322 ± 0.013
[2], x1 = 0.5661	838.25 ± 0.65	833.93 ± 0.65	830.59 ± 0.66	–	–	–	0.8679 ± 0.015	0.801 ± 0.014	0.7387 ± 0.013
[2], x1 = 0.6583	863.76 ± 0.62	859.36 ± 0.62	856.21 ± 0.63	–	–	–	0.8896 ± 0.015	0.8198 ± 0.014	0.7585 ± 0.013
[2], x1 = 0.7725	900.09 ± 0.59	895.52 ± 0.59	892.66 ± 0.59	–	–	–	0.9343 ± 0.016	0.8683 ± 0.015	0.799 ± 0.014
[2], x1 = 0.8798	940.35 ± 0.56	935.67 ± 0.56	933.11 ± 0.56	–	–	–	0.9984 ± 0.017	0.9296 ± 0.016	0.8558 ± 0.015
[2], x1 = 1	993.81 ± 0.53	989.15 ± 0.53	984.42 ± 0.53	–	–	–	1.085 ± 0.018	1.017 ± 0.017	0.9285 ± 0.016

CCCCCCCCCC [decane] + COc1ccccc1
x2 = 0
Conditions	mass density, 293.15 K [kg/m3]	mass density, 298.15 K [kg/m3]	mass density, 303.15 K [kg/m3]	refractive index, 293.15 K	refractive index, 298.15 K	refractive index, 303.15 K	viscosity, 293.15 K [mPa·s]	viscosity, 298.15 K [mPa·s]	viscosity, 303.15 K [mPa·s]
[1]	–	–	–	1.4148 ± 0.001	1.4118 ± 0.001	1.4089 ± 0.001	–	–	–
[2]	729.91 ± 0.8	726.16 ± 0.8	722.36 ± 0.81	–	–	–	0.9169 ± 0.016	0.8512 ± 0.015	0.7898 ± 0.014

CCCCCCCCC [nonane] + COc1ccccc1
x2 = 0
Conditions	mass density, 293.15 K [kg/m3]	mass density, 298.15 K [kg/m3]	mass density, 303.15 K [kg/m3]	refractive index, 293.15 K	refractive index, 298.15 K	refractive index, 303.15 K	viscosity, 293.15 K [mPa·s]	viscosity, 298.15 K [mPa·s]	viscosity, 303.15 K [mPa·s]
[1]	–	–	–	1.404 ± 0.0009	1.4027 ± 0.0009	1.4002 ± 0.001	–	–	–
[2]	717.59 ± 2.9	713.71 ± 3	709.81 ± 3	–	–	–	0.7136 ± 0.013	0.6715 ± 0.012	0.6307 ± 0.011

COc1ccccc1 [anisole] + CCCCCCCCCCCC
Conditions	mass density, 293.15 K [kg/m3]	mass density, 298.15 K [kg/m3]	mass density, 303.15 K [kg/m3]	refractive index, 293.15 K	refractive index, 298.15 K	refractive index, 303.15 K	viscosity, 293.15 K [mPa·s]	viscosity, 298.15 K [mPa·s]	viscosity, 303.15 K [mPa·s]
[1], x1 = 0.106	–	–	–	1.4239 ± 0.0013	1.4199 ± 0.0011	1.4163 ± 0.001	–	–	–
[1], x1 = 0.208	–	–	–	1.4289 ± 0.0012	1.4251 ± 0.0011	1.4213 ± 0.0011	–	–	–
[1], x1 = 0.29	–	–	–	1.4335 ± 0.0012	1.4298 ± 0.0011	1.4263 ± 0.001	–	–	–
[1], x1 = 0.391	–	–	–	1.4406 ± 0.0011	1.4371 ± 0.0011	1.4339 ± 0.001	–	–	–
[1], x1 = 0.4886	–	–	–	1.4488 ± 0.0011	1.4455 ± 0.001	1.4426 ± 0.001	–	–	–
[1], x1 = 0.607	–	–	–	1.4601 ± 0.0011	1.457 ± 0.001	1.4545 ± 0.0009	–	–	–
[1], x1 = 0.7055	–	–	–	1.4707 ± 0.0011	1.4677 ± 0.001	1.4654 ± 0.0009	–	–	–
[1], x1 = 0.7845	–	–	–	1.4809 ± 0.0011	1.4779 ± 0.001	1.4756 ± 0.0009	–	–	–
[1], x1 = 0.88	–	–	–	1.4959 ± 0.0011	1.493 ± 0.001	1.4908 ± 0.0009	–	–	–
[1], x1 = 1	–	–	–	1.5161 ± 0.0009	1.5141 ± 0.0009	1.5129 ± 0.0009	–	–	–
[2], x1 = 0.0992	760.26 ± 0.75	756.57 ± 0.76	752.87 ± 0.76	–	–	–	1.413 ± 0.023	1.312 ± 0.022	1.197 ± 0.02
[2], x1 = 0.2015	773.6 ± 0.73	769.83 ± 0.74	766.07 ± 0.74	–	–	–	1.341 ± 0.022	1.248 ± 0.021	1.138 ± 0.019
[2], x1 = 0.2969	787.75 ± 0.71	783.97 ± 0.72	780.1 ± 0.72	–	–	–	1.272 ± 0.021	1.181 ± 0.02	1.081 ± 0.018
[2], x1 = 0.4102	807.23 ± 0.69	803.3 ± 0.69	799.35 ± 0.7	–	–	–	1.19 ± 0.02	1.104 ± 0.019	1.003 ± 0.017
[2], x1 = 0.4898	822.92 ± 0.67	818.98 ± 0.67	814.93 ± 0.68	–	–	–	1.138 ± 0.019	1.052 ± 0.018	0.9616 ± 0.017
[2], x1 = 0.6099	850.24 ± 0.64	846.1 ± 0.64	841.96 ± 0.64	–	–	–	1.074 ± 0.018	0.9944 ± 0.017	0.9147 ± 0.016
[2], x1 = 0.702	875.28 ± 0.61	871.03 ± 0.61	866.78 ± 0.62	–	–	–	1.039 ± 0.018	0.9639 ± 0.016	0.8922 ± 0.015
[2], x1 = 0.8023	907.62 ± 0.58	903.24 ± 0.58	898.86 ± 0.59	–	–	–	1.032 ± 0.017	0.9569 ± 0.016	0.8858 ± 0.015
[2], x1 = 0.8976	944.56 ± 0.56	940.04 ± 0.56	935.51 ± 0.56	–	–	–	1.046 ± 0.018	0.9718 ± 0.017	0.9132 ± 0.016
[2], x1 = 1	993.81 ± 0.53	989.15 ± 0.53	984.42 ± 0.53	–	–	–	1.085 ± 0.018	1.017 ± 0.017	0.9285 ± 0.016
